Biological target: T1, Recombinant human liver GK1 (GST-GK) (Homo sapiens, UniProt P35557)
T1 construct: made in house; host or cells: E. coli
T1 sequence (P35557 1-466 isoform P35557-2): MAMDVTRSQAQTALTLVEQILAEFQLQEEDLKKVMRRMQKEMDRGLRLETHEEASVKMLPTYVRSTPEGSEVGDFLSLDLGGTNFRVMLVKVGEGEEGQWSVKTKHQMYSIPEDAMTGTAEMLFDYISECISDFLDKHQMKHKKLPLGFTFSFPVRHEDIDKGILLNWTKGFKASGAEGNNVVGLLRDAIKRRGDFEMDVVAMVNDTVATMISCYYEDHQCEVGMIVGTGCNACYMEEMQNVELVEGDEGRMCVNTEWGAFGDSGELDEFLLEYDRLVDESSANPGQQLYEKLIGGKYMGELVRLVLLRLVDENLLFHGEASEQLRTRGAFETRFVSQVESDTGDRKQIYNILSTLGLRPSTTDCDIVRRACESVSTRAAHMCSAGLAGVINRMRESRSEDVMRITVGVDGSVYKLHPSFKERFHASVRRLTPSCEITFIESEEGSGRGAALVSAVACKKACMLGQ
Assay: Glucokinase in vitro assay (G6PDH-coupled NADH generation, OD340)
Assay type: biochemical
Details: 30 uM test compound, 5 mM D-glucose
Outline: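 GST-tagged recombinant GK1 expressed in E. coli, run at 30° C, pH 7.1 Hepes with 5 mM D-glucose, 1 mM ATP and 1.8 mM NAD, G6PDH-coupled. Compounds were in 10% DMSO final, with a 10 min pre-incubation before enzyme addition. OD340/min rate measured; SC1.5 is the activator concentration giving a 50% increase in activity.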

Row | fold activation @ 30 uM [fold] | SMILES
1 | 1.15 | Cn1nc(NC(=O)C(CC2CCCC2)n2ncc(Oc3ccccc3C(F)(F)F)cc2=O)cc1C(F)(F)F (stereo not drawn) [Example 45, 3-Cyclopentyl-N-(1-methyl-5-trifluoromethyl-1H-pyrazol-3-yl)-2-[6-oxo-4-(2-trifluoromethyl-phenoxy)-6H-pyridazin-1-yl]-propionamide]

Same assay, conditions: 5 mM D-glucose, 30° C., pH 7.1, 10% DMSO

Row | SMILES | SC1.5 average (concentration of activator that produced a 50% increase in the activity of GK) [µM]
2 | CC(C)(O)Cn1ccc(NC(=O)C(Cc2ccccc2)n2ncc(Oc3c(F)cccc3F)cc2=O)n1 (stereo not drawn) [Example 44, 2-[4-(2,6-Difluoro-phenoxy)-6-oxo-6H-pyridazin-1-yl]-N-[1-(2-hydroxy-2-methyl-propyl)-1H-pyrazol-3-yl]-3-phenyl-propionamide] | 1.032
3 | Cn1nc(NC(=O)C(CC2CCCC2)n2ncc(Oc3ccccc3C(F)(F)F)cc2=O)cc1C(F)(F)F (stereo not drawn) [Example 45, 3-Cyclopentyl-N-(1-methyl-5-trifluoromethyl-1H-pyrazol-3-yl)-2-[6-oxo-4-(2-trifluoromethyl-phenoxy)-6H-pyridazin-1-yl]-propionamide] | > 30
4 | CC(C)(O)Cn1ccc(NC(=O)C(CC2CCCC2)n2ncc(Cc3ccccc3C(F)(F)F)cc2=O)n1 (stereo not drawn) [Example 46, 3-Cyclopentyl-N-[1-(2-hydroxy-2-methyl-propyl)-1H-pyrazol-3-yl]-2-[6-oxo-4-(2-trifluoromethyl-benzyl)-6H-pyridazin-1-yl]-propionamide] | 1.947
5 | CC(C)(O)Cn1ccc(NC(=O)C(CC2CCCC2)n2ncc(Cc3cccc(C(F)(F)F)c3)cc2=O)n1 (stereo not drawn) [Example 47, 3-Cyclopentyl-N-[1-(2-hydroxy-2-methyl-propyl)-1H-pyrazol-3-yl]-2-[6-oxo-4-(3-trifluoromethyl-benzyl)-6H-pyridazin-1-yl]-propionamide] | 1.366
6 | CC(C)(O)Cn1ccc(NC(=O)C(CC2CCCC2)n2ncc(Cc3c(F)cccc3F)cc2=O)n1 (stereo not drawn) [Example 48, 3-Cyclopentyl-2-[4-(2,6-difluoro-benzyl)-6-oxo-6H-pyridazin-1-yl]-N-[1-(2-hydroxy-2-methyl-propyl)-1H-pyrazol-3-yl]-propionamide] | 1.495
7 | CC(C)(O)Cn1ccc(NC(=O)C(CC2CCC2)n2ncc(Oc3c(F)cccc3F)cc2=O)n1 (stereo not drawn) [Example 49, 3-Cyclobutyl-2-[4-(2,6-difluoro-phenoxy)-6-oxo-6H-pyridazin-1-yl]-N-[1-(2-hydroxy-2-methyl-propyl)-1H-pyrazol-3-yl]-propionamide] | 0.305
8 | CC(C)(O)Cn1ccc(NC(=O)C(Cc2c(F)cccc2F)n2ncc(Oc3c(F)cccc3F)cc2=O)n1 (stereo not drawn) [Example 50, 2-[4-(2,6-Difluoro-phenoxy)-6-oxo-6H-pyridazin-1-yl]-3-(2,6-difluoro-phenyl)-N-[1-(2-hydroxy-2-methyl-propyl)-1H-pyrazol-3-yl]-propionamide] | 0.466
9 | CC(C)(O)Cn1ccc(NC(=O)C(CC2CCCCC2)n2ncc(Oc3c(F)cccc3F)cc2=O)n1 (stereo not drawn) [Example 51, 3-Cyclohexyl-2-[4-(2,6-difluoro-phenoxy)-6-oxo-6H-pyridazin-1-yl]-N-[1-(2-hydroxy-2-methyl-propyl)-1H-pyrazol-3-yl]-propionamide] | 0.087
10 | CC(C)(O)Cn1ccc(NC(=O)[C@H](CC2CCCCC2)n2ncc(Oc3c(F)cccc3F)cc2=O)n1 [Example 51A, (S)-3-Cyclohexyl-2-[4-(2,6-difluoro-phenoxy)-6-oxo-6H-pyridazin-1-yl]-N-[1-(2-hydroxy-2-methyl-propyl)-1H-pyrazol-3-yl]-propionamide] | 0.038
11 | CC(C)(O)Cn1ccc(NC(=O)[C@@H](CC2CCCCC2)n2ncc(Oc3c(F)cccc3F)cc2=O)n1 [Example 51B, (R)-3-Cyclohexyl-2-[4-(2,6-difluoro-phenoxy)-6-oxo-6H-pyridazin-1-yl]-N-[1-(2-hydroxy-2-methyl-propyl)-1H-pyrazol-3-yl]-propionamide] | 0.838
12 | CCC(CC)CC(C(=O)Nc1ccn(CC(C)(C)O)n1)n1ncc(Oc2c(F)cccc2F)cc1=O (stereo not drawn) [Example 52, 2-[4-(2,6-Difluoro-phenoxy)-6-oxo-6H-pyridazin-1-yl]-4-ethyl-hexanoic acid [1-(2-hydroxy-2-methyl-propyl)-1H-pyrazol-3-yl]-amide] | 0.456

Now from value to compound:

Row | SC1.5 average (concentration of activator that produced a 50% increase in the activity of GK) [µM] | SMILES
13 | 0.469 | O=C(Nc1ccn(CCO)n1)C(CC1CCOCC1)n1ncc(Oc2c(F)cccc2F)cc1=O (stereo not drawn) [Example 53, 2-[4-(2,6-Difluoro-phenoxy)-6-oxo-6H-pyridazin-1-yl]-N-[1-(2-hydroxy-ethyl)-1H-pyrazol-3-yl]-3-(tetrahydro-pyran-4-yl)-propionamide]
14 | 0.544 | CCC(CC)CC(C(=O)Nc1ccn(CCO)n1)n1ncc(Oc2c(F)cccc2F)cc1=O (stereo not drawn) [Example 54, 2-[4-(2,6-Difluoro-phenoxy)-6-oxo-6H-pyridazin-1-yl]-4-ethyl-hexanoic acid [1-(2-hydroxy-ethyl)-1H-pyrazol-3-yl]-amide]
15 | 0.468 | O=C(Nc1ccn(CCO)n1)C(CC1CCC1)n1ncc(Oc2c(F)cccc2F)cc1=O (stereo not drawn) [Example 55, 3-Cyclobutyl-2-[4-(2,6-difluoro-phenoxy)-6-oxo-6H-pyridazin-1-yl]-N-[1-(2-hydroxy-ethyl)-1H-pyrazol-3-yl]-propionamide]
16 | 0.153 | O=C(Nc1ccn(CCO)n1)C(CC1CCCCC1)n1ncc(Oc2c(F)cccc2F)cc1=O (stereo not drawn) [Example 56, 3-Cyclohexyl-2-[4-(2,6-difluoro-phenoxy)-6-oxo-6H-pyridazin-1-yl]-N-[1-(2-hydroxy-ethyl)-1H-pyrazol-3-yl]-propionamide]
17 | 0.986 | O=C(Nc1ccn(CCO)n1)C(Cc1c(F)cccc1F)n1ncc(Oc2c(F)cccc2F)cc1=O (stereo not drawn) [Example 57, 2-[4-(2,6-Difluoro-phenoxy)-6-oxo-6H-pyridazin-1-yl]-3-(2,6-difluoro-phenyl)-N-[1-(2-hydroxy-ethyl)-1H-pyrazol-3-yl]-propionamide]
18 | 2.719 | O=C(Nc1ccn(CCO)n1)C(Cc1ccccc1)n1ncc(Oc2c(F)cccc2F)cc1=O (stereo not drawn) [Example 58, 2-[4-(2,6-Difluoro-phenoxy)-6-oxo-6H-pyridazin-1-yl]-N-[1-(2-hydroxy-ethyl)-1H-pyrazol-3-yl]-3-phenyl-propionamide]
19 | 0.576 | CC(C)CC(C(=O)Nc1ccn(CCO)n1)n1ncc(Oc2c(F)cccc2F)cc1=O (stereo not drawn) [Example 59, 2-[4-(2,6-Difluoro-phenoxy)-6-oxo-6H-pyridazin-1-yl]-4-methyl-pentanoic acid [1-(2-hydroxy-ethyl)-1H-pyrazol-3-yl]-amide]
20 | 0.166 | O=C(Nc1ccn(CCO)n1)C(CC1CCCC1)n1ncc(Oc2c(F)cccc2F)cc1=O (stereo not drawn) [Example 60, 3-Cyclopentyl-2-[4-(2,6-difluoro-phenoxy)-6-oxo-6H-pyridazin-1-yl]-N-[1-(2-hydroxy-ethyl)-1H-pyrazol-3-yl]-propionamide]
21 | 0.066 | O=C(Nc1ccn(CCO)n1)[C@H](CC1CCCC1)n1ncc(Oc2c(F)cccc2F)cc1=O [Example 60A, (S)-3-Cyclopentyl-2-[4-(2,6-difluoro-phenoxy)-6-oxo-6H-pyridazin-1-yl]-N-[1-(2-hydroxy-ethyl)-1H-pyrazol-3-yl]-propionamide]

— US8258134B2, “Pyridazinone glucokinase activators” (Hoffmann-La Roche Inc., priority 2008, dated 2012)
